Biological target: CRP/Fn binding (CRP captured on immobilized CRP antibody, Fn injected) (Homo sapiens, UniProt P02741+P02751)
Assay: SPR (Biacore X) in vitro model of the inhibitory effect of test compounds on CRP/Fn binding
Parameters: 10 μL of CRP antigen 6 (50 μg/mL) was injected in flow channel 2
Conditions: for inhibitory effect on CRP/Fn binding (in words): at the conditions of Table 3; for SPR Response (RU): control without inhibitor 118 RU
Procedure: An in vitro model was designed to determine inhibitory effect of several different test compounds on CRP/Fn binding. Surface plasmon resonance (SPR) measurements were performed using a Biacore® X system and amine coupling kit for immobilization. […] All experiments were performed at 25° C., unless otherwise specified. The SPR technology used is based on optical phenomena in which the measured response depends on a change in refractive index in the close vicinity of the sensor chip surface. The response in such systems is proportional to the mass of analyte bound to the surface. The SPR method was used to monitor continuous analysis over the course of the interaction. […] (catalog number A58110228P), which specifically binds to calcium/phosphocholine site of CRP, was immobilized on a surface of a sensor chip 23 (CM5, carboxyl functionalized) via amine coupling chemistry as is generally known in the art. Following immobilization of the antibody to the surface of the chip 23, 10 μL of CRP antigen 6 (50 μg/mL) was injected in flow channel 2. Following this injection, 60 μL of an Fn solution 8 was injected into both flow channel 1 and flow channel 2 for two minutes duration (association phase), followed by 2 minutes delay time (dissociation phase). […] The process was repeated with an Fn solution including no inhibitor material as a control as well as several Fn solutions including various inhibitor compounds as herein described. Fn concentration was 1 mg/mL in all solutions.

[1] = inhibitor 50 μM, Fn 1 mg/mL, 25° C.
[2] = inhibitor 50 μM, Fn 1 mg/mL, 25° C., relative to control without inhibitor

Sequence of CRP/Fn binding (CRP captured on immobilized CRP antibody, Fn injected) (P02741 19-224): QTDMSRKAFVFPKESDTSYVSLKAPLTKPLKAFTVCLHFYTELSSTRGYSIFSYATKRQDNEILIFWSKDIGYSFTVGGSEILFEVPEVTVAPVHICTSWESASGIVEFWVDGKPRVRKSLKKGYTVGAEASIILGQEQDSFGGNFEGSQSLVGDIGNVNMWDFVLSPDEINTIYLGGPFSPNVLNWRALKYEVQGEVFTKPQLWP
Sequence of CRP/Fn binding (CRP captured on immobilized CRP antibody, Fn injected) (P02751 32-2477): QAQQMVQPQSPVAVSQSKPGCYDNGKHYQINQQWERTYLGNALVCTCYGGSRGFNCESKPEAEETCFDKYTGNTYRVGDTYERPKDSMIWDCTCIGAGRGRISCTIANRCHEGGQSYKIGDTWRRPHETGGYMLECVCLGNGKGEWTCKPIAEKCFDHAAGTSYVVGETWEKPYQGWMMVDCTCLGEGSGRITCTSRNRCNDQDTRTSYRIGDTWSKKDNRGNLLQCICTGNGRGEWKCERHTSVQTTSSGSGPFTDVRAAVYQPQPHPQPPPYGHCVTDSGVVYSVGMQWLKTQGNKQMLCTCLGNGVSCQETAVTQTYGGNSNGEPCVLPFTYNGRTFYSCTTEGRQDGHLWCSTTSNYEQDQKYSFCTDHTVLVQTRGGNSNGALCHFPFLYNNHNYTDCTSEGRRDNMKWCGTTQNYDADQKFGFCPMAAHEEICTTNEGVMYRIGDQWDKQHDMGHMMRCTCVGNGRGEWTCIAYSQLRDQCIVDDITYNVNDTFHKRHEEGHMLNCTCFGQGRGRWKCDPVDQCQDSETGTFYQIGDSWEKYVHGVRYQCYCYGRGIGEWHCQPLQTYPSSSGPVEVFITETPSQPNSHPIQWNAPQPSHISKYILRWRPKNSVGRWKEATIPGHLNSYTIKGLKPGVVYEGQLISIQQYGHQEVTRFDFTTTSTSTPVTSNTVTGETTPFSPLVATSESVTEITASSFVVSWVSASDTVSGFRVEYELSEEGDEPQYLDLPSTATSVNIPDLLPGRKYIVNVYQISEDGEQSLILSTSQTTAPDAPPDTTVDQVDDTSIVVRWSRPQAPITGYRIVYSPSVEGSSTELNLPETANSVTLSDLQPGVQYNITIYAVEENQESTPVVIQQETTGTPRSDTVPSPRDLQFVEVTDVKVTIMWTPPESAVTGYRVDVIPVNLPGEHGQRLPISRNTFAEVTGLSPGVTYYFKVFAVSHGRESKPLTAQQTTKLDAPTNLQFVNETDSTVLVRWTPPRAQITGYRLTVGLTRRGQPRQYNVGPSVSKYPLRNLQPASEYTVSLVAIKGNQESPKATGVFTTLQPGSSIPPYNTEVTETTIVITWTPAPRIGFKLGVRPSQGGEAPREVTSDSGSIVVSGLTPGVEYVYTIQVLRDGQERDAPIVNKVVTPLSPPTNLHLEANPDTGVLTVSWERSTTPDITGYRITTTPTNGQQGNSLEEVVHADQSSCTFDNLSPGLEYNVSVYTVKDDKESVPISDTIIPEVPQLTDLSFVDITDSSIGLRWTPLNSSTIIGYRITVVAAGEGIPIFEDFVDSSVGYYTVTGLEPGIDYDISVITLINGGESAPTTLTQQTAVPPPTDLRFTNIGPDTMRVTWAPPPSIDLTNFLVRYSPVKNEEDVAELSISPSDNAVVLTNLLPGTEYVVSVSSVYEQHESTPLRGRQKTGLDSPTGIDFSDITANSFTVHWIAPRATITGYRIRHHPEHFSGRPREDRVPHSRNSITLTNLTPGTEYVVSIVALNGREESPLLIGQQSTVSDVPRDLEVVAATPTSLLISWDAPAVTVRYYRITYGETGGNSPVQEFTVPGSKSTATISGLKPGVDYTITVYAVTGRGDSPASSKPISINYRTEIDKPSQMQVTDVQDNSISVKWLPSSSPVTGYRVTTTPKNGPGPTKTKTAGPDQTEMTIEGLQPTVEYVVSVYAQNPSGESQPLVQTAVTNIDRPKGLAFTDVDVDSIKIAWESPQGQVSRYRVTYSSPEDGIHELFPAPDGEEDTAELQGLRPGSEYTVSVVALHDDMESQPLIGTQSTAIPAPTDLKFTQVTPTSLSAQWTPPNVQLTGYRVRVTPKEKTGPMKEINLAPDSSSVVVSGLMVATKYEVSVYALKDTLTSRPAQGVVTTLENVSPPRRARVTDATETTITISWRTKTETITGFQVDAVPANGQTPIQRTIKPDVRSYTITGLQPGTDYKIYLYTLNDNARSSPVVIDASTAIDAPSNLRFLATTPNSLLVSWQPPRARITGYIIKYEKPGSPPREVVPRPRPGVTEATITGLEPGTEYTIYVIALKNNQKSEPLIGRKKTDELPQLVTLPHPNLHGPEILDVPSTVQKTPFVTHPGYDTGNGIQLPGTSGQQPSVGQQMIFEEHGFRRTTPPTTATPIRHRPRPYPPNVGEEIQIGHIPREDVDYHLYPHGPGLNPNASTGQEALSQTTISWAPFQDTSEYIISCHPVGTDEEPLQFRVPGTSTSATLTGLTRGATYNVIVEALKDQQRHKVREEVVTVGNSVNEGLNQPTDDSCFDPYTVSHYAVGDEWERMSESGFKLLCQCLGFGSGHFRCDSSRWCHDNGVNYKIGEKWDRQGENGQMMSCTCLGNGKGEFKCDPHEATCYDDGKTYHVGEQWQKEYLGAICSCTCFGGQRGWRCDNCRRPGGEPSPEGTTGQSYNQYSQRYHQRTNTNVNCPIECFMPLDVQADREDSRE

Row | Molecule | inhibitory effect on CRP/Fn binding (in words) | SPR Response (RU) (inhibitor 40 μM, Fn 1 mg/mL, 25° C.) | % Inhibition (inhibitor 40 μM, Fn 1 mg/mL, 25° C., relative to control without inhibitor) | SPR Response (RU) (inhibitor 200 μM, Fn 1 mg/mL, 25° C.) | inhibition at 200 µM (inhibitor 200 μM, Fn 1 mg/mL, 25° C., relative to control without inhibitor) | SPR Response (RU) [1] | % Inhibition [2]
1 | CC/C=C\C[C@H]1C(=O)CC[C@@H]1CC(=O)O [Jasmonic acid, jasmonic acid] | somewhat less inhibitory effect | 94 RU | 20.4% |  |  |  | 
2 | C=C1C[C@]23C[C@@]1(O)CC[C@H]2[C@@]12C=C[C@H](O)[C@@](C)(C(=O)O1)[C@H]2[C@@H]3C(=O)O [Gibberellic acid, gibberellic acid] | somewhat less inhibitory effect |  |  | 90 RU | 23.7% |  | 
3 | 9-mer: 9 mer segment of SEQ ID NO.:11, specifically the first nine amino acids of SEQ ID NO.:11 (PRCGNPDVA; listed as Homo sapiens) | no significant effect |  |  |  |  | 119 RU | 0.0%
4 | 10-mer: 10-mer polypeptide of SEQ ID NO.:12, exemplary inhibitor of CRP/Fn complexation (NYNFFPRKPK; listed as Homo sapiens) | somewhat less inhibitory effect |  |  |  |  | 76 RU | 35.6%
